Experimental data taken from patent publication US9255257B2, “PmST1 mutants for chemoenzymatic synthesis of sialyl lewis X compounds” (THE REGENTS OF THE UNIVERSITY OF CALIFORNIA, priority 2011, dated 2016).

Key:
[1] = biological target: T1, Pasteurella multocida PmST1 mutant M144D of SEQ ID NO: 13 (M120D of Δ24PmST1, SEQ ID NO: 3) (Pasteurella multocida, UniProt Q15KI8, M144D); assay: α2-3-sialyltransferase activity, Le^xβMU as acceptor; assay type: biochemical; conditions: apparent, donor, Le^xβMU 1 mM, CAPSO pH 9.5, 37° C.
Method: (§1) Site-directed mutagenesis, expression and purification of PmST1 mutants. Site-directed mutagenesis was performed using the QuikChange multi-site-directed mutagenesis kit from Stratagene according to the manufacturer's protocol. The primers used were 5′-[…]-3′ (SEQ ID NO:35) for M144D; 5′-[…]a[…] -3′ (SEQ ID NO:36) for M144H; 5′-[…]-3′ (SEQ ID NO:37) for A35D; and 5′-[…]-3′ (SEQ ID NO:38) for A35H. The expression and purification of the mutants were performed as previously described for the WT PmST1 .
(§2) Kinetics of the α2-3-sialyltransferase activity of PmST1 mutants by HPLC analysis. With LacβMU as the acceptor substrate, the reactions were performed in duplicate at 37° C. for 10 min (M144D) or 4 min (M144H) in a reaction mixture (10 μL) containing Tris-HCl (100 mM, pH 8.5), an enzyme (5 μg mL^−1), and different concentrations (0.2, 0.5, 1.0, 2.0, and 5.0 mM) of LacβMU with a fixed concentration (1 mM) of CMP-Neu5Ac or different concentrations (0.2, 0.5, 1.0, 2.0, 5.0, and 10.0 mM) of CMP-Neu5Ac with a fixed concentration (1 mM) of LacβMU. With Le^xβMU as the acceptor substrate, the reactions were carried out in duplicate at 37° C. for 9 min (M144D) or 10 min (M144H) in a reaction mixture (10 μL) containing CAPSO (100 mM, pH 9.5), an enzyme (M144D, 39 μg mL^−1 or M144H, 5 μg mL^−), and various concentrations of Le^xβMU (1.0, 5.0, 10.0, 15.0, 25.0, and 35.0 mM) with a fixed concentration (1 mM) of CMP-Neu5Ac or various concentrations (0.2, 0.5, 1.0, 2.0, 5.0, 10.0, 20.0, and 40.0 mM) of CMP-Neu5Ac with a fixed concentration (1 mM) of Le^xβMU. Reactions were stopped by adding 10 μL of pre-chilled ethanol. The mixtures were incubated on ice for 30 min and centrifuged at 13,000 rpm for 5 min. The supernatants were diluted with 25% acetonitrile and kept on ice until aliquots of 8 μL were injected and analyzed by the Shimadzu LC-6AD system equipped with a membrane on-line degasser, a temperature control unit, and a fluorescence detector (Shimadzu RF-10AXL). A reverse-phase Premier C18 column (250×4.6 mm i.d., 5 μm particle size, Shimadzu) protected with a C18 guard column cartridge was used. The mobile phase was 25% acetonitrile. The fluorophore (MU)-labeled compounds were detected by excitation at 325 nm and emission at 372 nm. The apparent kinetic parameters were obtained by fitting the experimental data (the average values of duplicate assay results) into the Michaelis-Menten equation using Grafit 5.0.

[2] = biological target: T2, Pasteurella multocida PmST1 mutant M144H of SEQ ID NO: 13 (M120H of Δ24PmST1, SEQ ID NO: 5) (Pasteurella multocida, UniProt Q15KI8, M144H); assay: as above; assay type: biochemical; conditions: apparent, donor, Le^xβMU 1 mM, CAPSO pH 9.5, 37° C.
Method: as §1, §2

[3] = biological target: T1, Pasteurella multocida PmST1 mutant M144D of SEQ ID NO: 13 (M120D of Δ24PmST1, SEQ ID NO: 3); assay: CMP-Neu5Ac (donor) hydrolysis activity, capillary electrophoresis; assay type: biochemical; conditions: apparent, Tris-HCl pH 8.5, 37° C., 15 min
Method: as §1
(§3) Kinetics of the donor hydrolysis activity of PmST1 and mutants by capillary electrophoresis analysis. […] The reactions were stopped by adding 10 μL of pre-chilled ethanol. The mixtures were incubated on ice for 30 min and centrifuged at 13,000 rpm for 5 min. The supernatants were diluted with borate buffer (25 mM, pH 9.5) and aliquotes of 5 μL each were injected to a Beckman Coulter P/ACE™ MDQ Capillary Electrophoresis system equipped with a capillary (60 cm×75 μm i.d.) and monitored at 254 nm. The apparent kinetic parameters were obtained by fitting the experimental data (the average values of duplicate assay results) into the Michaelis-Menten equation using Grafit 5.0.

[4] = biological target: T2, Pasteurella multocida PmST1 mutant M144H of SEQ ID NO: 13 (M120H of Δ24PmST1, SEQ ID NO: 5); assay: as above; assay type: biochemical; conditions: apparent, Tris-HCl pH 8.5, 37° C., 15 min
Method: as §1, §3

[5] = biological target: Pasteurella multocida α2-3-sialyltransferase 1 (PmST1), wild type (WT), SEQ ID NO: 13 (Pasteurella multocida, UniProt Q15KI8); conditions: apparent, donor, with LacβMU, read-out: Km for CMP-Neu5Ac; cited from earlier work
[6] = biological target: Pasteurella multocida PmST1 mutant D141A (Pasteurella multocida, UniProt Q15KI8, D141A); assay: CMP-Neu5Ac (donor) hydrolysis activity, capillary electrophoresis; conditions: apparent, Tris-HCl pH 8.5, 37° C., 40 min
[7] = biological target: Pasteurella multocida PmST1 mutant H311A (Pasteurella multocida, UniProt Q15KI8, H311A); assay: as above; conditions: apparent, Tris-HCl pH 8.5, 37° C., 20 min

CC(=O)N[C@H]1[C@H]([C@H](O)[C@H](O)CO)O[C@](OP(=O)(O)OC[C@H]2O[C@@H](n3ccc(N)nc3=O)[C@H](O)[C@@H]2O)(C(=O)O)C[C@@H]1O [CMP-Neu5Ac]
kcat (CMP-Neu5Ac) [1]: 0.59 ± 0.01 s⁻¹ | kcat (CMP-Neu5Ac) [2]: 0.93 ± 0.02 s⁻¹ | kcat [3]: 6.5 ± 0.1 s⁻¹ | kcat [4]: 71 ± 6 s⁻¹ | Km [5]: 440 µM | kcat [6]: (2.5 ± 0.1) × 10^−2 s^−1 | kcat [7]: 2.1 ± 0.1 s⁻¹
